Counter-ions that a name gives are not always drawn.
Experiments:
Phase IIa clinical trial = type: in vivo, human
Source text: When the heart pumps blood into the vascular system, the ability of the arteries to expand helps to push blood through the body. When arteries become stiff, as they do in the natural process of aging, the ability of the arteries to expand is diminished and also has consequences for the heart. The heart has to work harder to pump the blood into the stiff arteries, and eventually hypertrophies (enlarges in size) to accomplish this. A hypertrophied heart is an inefficient pump, and is one of the disorders that leads to congestive heart failure. […] The potential clinical benefit of this is to lessen the effort that the heart must expend to push blood throughout the body. The effect is also believed to contribute to preventing hypertrophy and subsequent inefficiency of the heart, which inefficiency would contribute to congestive heart failure.
Atherosclerosis is a disease that involves deposition of blood lipids in plaque in the arteries throughout the body. In coronary arteries, accumulation of plaque progressively leads to reduced coronary flow, with occlusion of the arteries causing focal death of cardiac tissue (myocardial infarction, heart attack). If the amount of tissue that dies is large enough, death ensures. […] Reducing local deposits of plaque should eventually lessen the risk of myocardial infarction and death due to heart attacks.
Pulse pressure is the difference between systolic and diastolic blood pressure. In a young human, systolic pressure is typically 120 mm Hg and diastolic pressure is 80 mm Hg, resulting in a pulse pressure of 40 mm Hg. With age, in many individuals pulse pressure increases, largely due to the increase in systolic pressure that results from stiff vessel disease. In individuals with pulse pressure greater than 60 mm Hg there is an increased risk of death from cardiovascular morbidities. […] This decrease in pulse pressure was believed to be due primarily to the effect of the agent on lowering the systolic blood pressure.

[1] = In vivo studies of vascular stiffening; details: in vivo studies in rodents, canines and in primates
Source text: (§1) Cardiovascular risk correlates more closely with the systolic and the pulse pressure than with the diastolic pressure. In diabetic patients, the cardiovascular risk profile of diabetic patients is strongly correlated to duration of diabetes, glycemic control and blood pressure. Structural matrix proteins contribute to the function of vessels and the heart, and changes in the physical behavior of cardiovascular walls are believed to be important determinants of circulatory function. In elderly individuals, the loss of compliance in the aorta leads to isolated systolic hypertension, which in turn expands the arterial wall and thereby diminishes the dynamic range of elasticity. Loss of compliance also results in the development of left ventricular hypertrophy.

[2] = Dog model for diabetes, ventricular elasticity; type: in vivo
Source text: as §1

[3] = test system: collagen in cardiovascular tissues; experiment: Mass of collagen in cardiovascular tissues after treatment; type: in vivo
Source text: as §1

Type IV collagen = experiment: In situ hybridization studies, Type IV collagen expression; type: in vivo
Source text: as §1

TGFbeta = experiment: In situ hybridization studies, TGFbeta expression; type: in vivo
Source text: as §1

In the case of `Cc1sc[n+](CC(=O)c2ccccc2)c1C` [3-[2-phenyl-2-oxoethyl]-4,5-dimethyl-thiazolium salt], the “stiffness of arteries, as measured by the ratio of stroke volume (ml) to pulse pressure (mm Hg)” value (Phase IIa clinical trial; Phase IIa clinical trial) is reported as “showed an ability to reverse the stiffness of arteries”, the “amount of circulating triglycerides (lipids)” value (Phase IIa clinical trial; Phase IIa trial) is reported as “increased the amount of circulating triglycerides” and the pulse pressure (Phase IIa clinical trial; Phase IIa trial, elderly patients with pulse pressures greater than 60 mm Hg, statistically significant) is reported as “reduced pulse pressure”. The vascular stiffening [1] was “substantially ameliorating vascular stiffening”, the “end diastolic pressure (indicator of ventricular elasticity)” value [2] was “returned to a value at about the mid-point between the disease impaired value and the value for control dogs” and the “end diastolic volume (indicator of ventricular elasticity)” value [2] was “returned to a value at about the mid-point between the disease impaired value and the value for control dogs”. The “mass of collagen in cardiovascular tissues” value [3] was “reduction in the mass of collagen”, the “expression of Type IV collagen” value (Type IV collagen) was “reduces the expression” and the “expression of TGFbeta” value (TGFbeta) was “reduces the expression”.

Reference: patent US20030004194A1, “Method for treating fibrotic diseases or other indications VI” (Alteon, Inc., priority 2001, published 2003)
